# Measurements: patent US10597388B2, “Pyridazinone herbicides” (FMC CORPORATION, priority 2014, dated 2020)
# How the values were obtained:
# Experiment in all cases: Test C greenhouse herbicide test, pre- and postemergence
# Type in all cases: in vivo
# [1] = test system: barnyardgrass (Echinochloa crus-galli)
# Text: (§1) Seeds of plant species selected from blackgrass (Alopecurus myosuroides), ryegrass, Italian (Italian ryegrass, Lolium multiflorum), wheat (winter wheat, Triticum aestivum), galium (catchweed bedstraw, Galium aparine), corn (Zea mays), large crabgrass, large (large crabgrass, Digitaria sanguinalis), foxtail, giant (giant foxtail, Setaria faberii), johnsongrass (Sorghum halepense), lambsquarters (Chenopodium album), morningglory (Ipomoea coccinea), nutsedge, yellow (yellow nutsedge, Cyperus esculentus), pigweed (Amaranthus retroflexus), ragweed (common ragweed, Ambrosia elatior), soybean (Glycine max), barnyardgrass (Echinochloa crus-galli), oilseed rape (Brassica napus), waterhemp (common waterhemp, Amaranthus rudis), and velvetleaf (Abutilon theophrasti) were planted into a blend of loam soil and sand and treated preemergence with test chemicals formulated in a non-phytotoxic solvent mixture which included a surfactant.
# (§2) At the same time, plants selected from these crop and weed species and also chickweed (common chickweed, Stellaria media), kochia (Kochia scoparia), and oat, wild (wild oat, Avena fatua), were planted in pots containing Redi-Earth® planting medium (Scotts Company, 14111 Scottslawn Road, Marysville, Ohio 43041) comprising spaghnum peat moss, vermiculite, wetting agent and starter nutrients and treated with postemergence applications of test chemicals formulated in the same manner. Plants ranged in height from 2 to 18 cm (1- to 4-leaf stage) for postemergence treatments. Treated plants and controls were maintained in a greenhouse for 13 to 15 d, after which time all species were compared to controls and visually evaluated. Plant response ratings, summarized in Table C, are based on a scale of 0 to 100 where 0 is no effect and 100 is complete control. A dash (-) response means no test result.
# [2] = test system: blackgrass (Alopecurus myosuroides)
# Text: as §1, §2
# [3] = test system: corn (Zea mays)
# Text: as §1, §2
# [4] = test system: crabgrass, large (large crabgrass, Digitaria sanguinalis)
# Text: as §1, §2
# [5] = test system: foxtail, giant (giant foxtail, Setaria faberii)
# Text: as §1, §2
# [6] = test system: galium (catchweed bedstraw, Galium aparine)
# Text: as §1, §2
# [7] = test system: lambsquarters (Chenopodium album)
# Text: as §1, §2
# [8] = test system: morningglory (Ipomoea coccinea)
# Text: as §1, §2
# [9] = test system: nutsedge, yellow (yellow nutsedge, Cyperus esculentus)
# Text: as §1, §2
# [10] = test system: oilseed rape (Brassica napus)
# Text: as §1, §2
# [11] = test system: ragweed (common ragweed, Ambrosia elatior)
# Text: as §1, §2
# [12] = test system: ryegrass, Italian (Italian ryegrass, Lolium multiflorum)
# Text: as §1, §2
# [13] = test system: soybean (Glycine max)
# Text: as §1, §2
# [14] = test system: velvetleaf (Abutilon theophrasti)
# Text: as §1, §2
# [15] = test system: waterhemp (common waterhemp, Amaranthus rudis)
# Text: as §1, §2
# [16] = Postemergence, 31 g ai/ha, 0 to 100 scale (0 no effect, 100 complete control)
# [17] = Postemergence, 125 g ai/ha, scale 0 to 100, 0 is no effect, 100 is complete control
# [18] = Postemergence, 250 g ai/ha, scale 0 to 100, 0 no effect, 100 complete control, 13 to 15 d
# [19] = Preemergence, 31 g ai/ha, scale 0 to 100, 0 is no effect, 100 is complete control
# [20] = Preemergence, 62 g ai/ha, scale 0 to 100, 0 is no effect, 100 is complete control
# [21] = Preemergence, 125 g ai/ha, scale 0 to 100, 0 is no effect, 100 is complete control
# [22] = Preemergence, 250 g ai/ha, scale 0 to 100, 0 no effect, 100 complete control
# [23] = postemergence, 62 g ai/ha, scale 0 to 100, 0 no effect, 100 complete control
structure (smiles),measurement,setting,value
Cc1ccc2ccccc2c1-c1c(O)c(I)nn(C)c1=O [Compound 29],Barnyardgrass plant response rating,[1]; [16],15
same,"Plant response rating, Barnyardgrass",[1]; [17],40
same,"Plant response rating, Barnyardgrass",[1]; [18],40
same,"Plant response rating, Barnyardgrass",[1]; [19],10
same,"Plant response rating, Barnyardgrass",[1]; [20],35
same,"Plant response rating, Barnyardgrass",[1]; [21],80
same,Barnyardgrass plant response rating,[1]; [22],90
same,Barnyardgrass plant response rating,[1]; [23],25
same,Blackgrass plant response rating,[2]; [16],40
same,"Plant response rating, Blackgrass",[2]; [17],60
same,"Plant response rating, Blackgrass",[2]; [18],75
same,"Plant response rating, Blackgrass",[2]; [19],50
same,"Plant response rating, Blackgrass",[2]; [20],50
same,"Plant response rating, Blackgrass",[2]; [21],85
same,Blackgrass plant response rating,[2]; [22],85
same,Blackgrass plant response rating,[2]; [23],50
same,Corn plant response rating,[3]; [16],0
same,"Plant response rating, Corn",[3]; [17],30
same,"Plant response rating, Corn",[3]; [18],20
same,"Plant response rating, Corn",[3]; [19],0
same,"Plant response rating, Corn",[3]; [20],0
same,"Plant response rating, Corn",[3]; [21],0
same,Corn plant response rating,[3]; [22],45
same,Corn plant response rating,[3]; [23],10
same,"Crabgrass, Large plant response rating",[4]; [16],10
same,"Plant response rating, Crabgrass, Large",[4]; [17],50
same,"Plant response rating, Crabgrass, Large",[4]; [18],40
same,"Plant response rating, Crabgrass, Large",[4]; [19],5
same,"Plant response rating, Crabgrass, Large",[4]; [20],5
same,"Plant response rating, Crabgrass, Large",[4]; [21],55
same,"Crabgrass, Large plant response rating",[4]; [22],90
same,"Crabgrass, Large plant response rating",[4]; [23],20
same,"Foxtail, Giant plant response rating",[5]; [16],30
same,"Plant response rating, Foxtail, Giant",[5]; [17],60
same,"Plant response rating, Foxtail, Giant",[5]; [18],80
same,"Plant response rating, Foxtail, Giant",[5]; [19],75
same,"Plant response rating, Foxtail, Giant",[5]; [20],75
same,"Plant response rating, Foxtail, Giant",[5]; [21],90
same,"Foxtail, Giant plant response rating",[5]; [22],95
same,"Foxtail, Giant plant response rating",[5]; [23],35
same,Galium plant response rating,[6]; [16],90
same,"Plant response rating, Galium",[6]; [17],100
same,"Plant response rating, Galium",[6]; [18],100
same,"Plant response rating, Galium",[6]; [19],95
same,"Plant response rating, Galium",[6]; [20],95
same,"Plant response rating, Galium",[6]; [21],98
same,Galium plant response rating,[6]; [22],98
same,Galium plant response rating,[6]; [23],95
same,Lambsquarters plant response rating,[7]; [16],80
same,"Plant response rating, Lambsquarters",[7]; [17],85
same,"Plant response rating, Lambsquarters",[7]; [18],90
same,"Plant response rating, Lambsquarters",[7]; [19],75
same,"Plant response rating, Lambsquarters",[7]; [20],80
same,"Plant response rating, Lambsquarters",[7]; [21],80
same,Lambsquarters plant response rating,[7]; [22],90
same,Lambsquarters plant response rating,[7]; [23],85
same,Morningglory plant response rating,[8]; [16],85
same,"Plant response rating, Morningglory",[8]; [17],100
same,"Plant response rating, Morningglory",[8]; [18],100
same,"Plant response rating, Morningglory",[8]; [19],80
same,"Plant response rating, Morningglory",[8]; [20],95
same,"Plant response rating, Morningglory",[8]; [21],95
same,Morningglory plant response rating,[8]; [22],98
same,Morningglory plant response rating,[8]; [23],100
same,"Nutsedge, Yellow plant response rating",[9]; [16],25
same,"Plant response rating, Nutsedge, Yellow",[9]; [18],75
same,"Plant response rating, Nutsedge, Yellow",[9]; [19],15
same,"Plant response rating, Nutsedge, Yellow",[9]; [20],80
same,"Plant response rating, Nutsedge, Yellow",[9]; [21],85
same,"Nutsedge, Yellow plant response rating",[9]; [22],85
same,"Nutsedge, Yellow plant response rating",[9]; [23],35
same,Oilseed Rape plant response rating,[10]; [16],0
same,"Plant response rating, Oilseed Rape",[10]; [17],5
same,"Plant response rating, Oilseed Rape",[10]; [18],0
same,"Plant response rating, Oilseed Rape",[10]; [19],0
same,"Plant response rating, Oilseed Rape",[10]; [20],0
same,"Plant response rating, Oilseed Rape",[10]; [21],5
same,Oilseed Rape plant response rating,[10]; [22],70
same,Oilseed Rape plant response rating,[10]; [23],0
same,Ragweed plant response rating,[11]; [16],80
same,"Plant response rating, Ragweed",[11]; [17],95
same,"Plant response rating, Ragweed",[11]; [18],95
same,"Plant response rating, Ragweed",[11]; [19],80
same,"Plant response rating, Ragweed",[11]; [20],85
same,"Plant response rating, Ragweed",[11]; [21],85
same,Ragweed plant response rating,[11]; [22],90
same,Ragweed plant response rating,[11]; [23],90
same,"Ryegrass, Italian plant response rating",[12]; [16],70
same,"Plant response rating, Ryegrass, Italian",[12]; [17],85
same,"Plant response rating, Ryegrass, Italian",[12]; [18],95
same,"Plant response rating, Ryegrass, Italian",[12]; [19],90
same,"Plant response rating, Ryegrass, Italian",[12]; [20],90
same,"Plant response rating, Ryegrass, Italian",[12]; [21],90
same,"Ryegrass, Italian plant response rating",[12]; [22],90
same,"Ryegrass, Italian plant response rating",[12]; [23],80
same,Soybean plant response rating,[13]; [16],0
same,"Plant response rating, Soybean",[13]; [17],20
same,"Plant response rating, Soybean",[13]; [18],25
same,"Plant response rating, Soybean",[13]; [20],0
same,"Plant response rating, Soybean",[13]; [21],0
same,Soybean plant response rating,[13]; [22],0
same,Soybean plant response rating,[13]; [23],10
same,Velvetleaf plant response rating,[14]; [16],35
same,"Plant response rating, Velvetleaf",[14]; [17],85
same,"Plant response rating, Velvetleaf",[14]; [18],90
same,"Plant response rating, Velvetleaf",[14]; [20],90
same,"Plant response rating, Velvetleaf",[14]; [21],100
same,Velvetleaf plant response rating,[14]; [22],100
same,Velvetleaf plant response rating,[14]; [23],80
same,Waterhemp plant response rating,[15]; [16],70
same,"Plant response rating, Waterhemp",[15]; [17],80
same,"Plant response rating, Waterhemp",[15]; [18],98
same,"Plant response rating, Waterhemp",[15]; [20],100
same,"Plant response rating, Waterhemp",[15]; [21],100
same,Waterhemp plant response rating,[15]; [22],100
same,Waterhemp plant response rating,[15]; [23],80
